One molecule from ChEMBL document CHEMBL2203118, “Ethyl 2,4,6-trihydroxybenzoate is an agonistic ligand for liver X receptor that induces cholesterol efflux from macrophages without affecting lipid accumulation in HepG2 cells” (Bioorg Med Chem Lett, 2012) can be followed below.

Broadly, the EC50 is the midpoint of the concentration-response curve.

Molecules are shown by their SMILES. Activity calls are given as the source filed them. The rule behind the calls is not given here.

Data set [1] relates to HepG2. The data set can be described thus: Cytotoxicity against human HepG2 cells after 48 hrs by MTT assay. The class given is cell-based. The following applies: hepg2, 48 h.
In data set [2] the target is T1, Oxysterols receptor LXR-alpha (Homo sapiens) (UniProt Q13133).
T1 sequence (whole entry): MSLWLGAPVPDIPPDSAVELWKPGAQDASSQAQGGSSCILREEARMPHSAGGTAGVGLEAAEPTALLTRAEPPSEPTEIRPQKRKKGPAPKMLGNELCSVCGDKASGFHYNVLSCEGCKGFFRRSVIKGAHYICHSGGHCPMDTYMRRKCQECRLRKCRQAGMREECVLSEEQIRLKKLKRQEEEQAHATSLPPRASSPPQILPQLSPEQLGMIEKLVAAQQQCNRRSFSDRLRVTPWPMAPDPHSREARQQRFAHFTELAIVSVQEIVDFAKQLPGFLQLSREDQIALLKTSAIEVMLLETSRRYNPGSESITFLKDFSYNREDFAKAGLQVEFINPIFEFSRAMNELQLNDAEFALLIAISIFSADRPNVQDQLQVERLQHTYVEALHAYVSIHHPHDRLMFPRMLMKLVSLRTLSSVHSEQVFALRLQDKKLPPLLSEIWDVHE
Description: (§1) Agonist activity at human LXR-alpha assessed as increase in recruitment of Trap 220/Drip2 coactivator peptide by TR-FRET assay. The class given is functional. (TR-FRET usually uses a lanthanide donor and a delayed reading to cut background.)

The target in data set [3] is T2, Oxysterols receptor LXR-alpha (Homo sapiens, UniProt Q13133).
T2 sequence (Q13133 whole entry): T1 sequence (whole entry)
The data set is described as §1. The format is functional.

Data set [4] has as its target T3, Peroxisome proliferator-activated receptor gamma (Homo sapiens) (UniProt P37231).
T3 sequence (whole entry): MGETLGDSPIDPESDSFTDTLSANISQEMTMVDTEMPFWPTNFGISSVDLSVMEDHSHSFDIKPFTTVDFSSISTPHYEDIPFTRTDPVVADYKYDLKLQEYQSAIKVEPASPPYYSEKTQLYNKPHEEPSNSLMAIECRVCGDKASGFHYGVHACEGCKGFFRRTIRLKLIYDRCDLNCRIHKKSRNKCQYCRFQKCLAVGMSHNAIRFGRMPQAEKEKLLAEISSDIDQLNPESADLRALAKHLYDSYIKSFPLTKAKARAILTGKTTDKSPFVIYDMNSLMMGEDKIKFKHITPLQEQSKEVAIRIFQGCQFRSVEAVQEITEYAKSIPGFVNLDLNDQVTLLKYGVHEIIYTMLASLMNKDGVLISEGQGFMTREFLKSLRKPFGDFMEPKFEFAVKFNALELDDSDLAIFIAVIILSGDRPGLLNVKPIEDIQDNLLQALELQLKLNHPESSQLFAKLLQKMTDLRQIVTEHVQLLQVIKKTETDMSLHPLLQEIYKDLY
Description: Transactivation of PPAR-gamma transfected in HEK293 cells at 50 to 100 uM after 24 hrs by luciferase reporter gene assay. The format is cell-based. (Reporter assays use an easily measured gene product as a stand-in for the process of interest.)

The target of data set [5] is T4, Liver X receptor (Homo sapiens) (UniProt Q13133+P55055). The data set can be described thus: Agonist activity at LXR in human THP1 cells assessed as induction of ABCA1 gene expression at 100 uM after 48 hrs by immunoblot analysis relative to control. The class given is functional, cell-based. The following applies: THP-1. On the technique in general: A western blot detects proteins with antibodies after separation by electrophoresis.

The target of data set [6] is T4, Liver X receptor (Homo sapiens). The data set can be described thus: Agonist activity at LXR in human Caco2 cells assessed as increase in ABCA1 mRNA level at 100 uM after 48 hrs by qPCR analysis relative to control. The format is functional, cell-based. The following applies: Caco-2.
For data set [7], the target named is T5, Oxysterols receptor LXR-beta (Homo sapiens, UniProt P55055).
T5 sequence (P55055 whole entry): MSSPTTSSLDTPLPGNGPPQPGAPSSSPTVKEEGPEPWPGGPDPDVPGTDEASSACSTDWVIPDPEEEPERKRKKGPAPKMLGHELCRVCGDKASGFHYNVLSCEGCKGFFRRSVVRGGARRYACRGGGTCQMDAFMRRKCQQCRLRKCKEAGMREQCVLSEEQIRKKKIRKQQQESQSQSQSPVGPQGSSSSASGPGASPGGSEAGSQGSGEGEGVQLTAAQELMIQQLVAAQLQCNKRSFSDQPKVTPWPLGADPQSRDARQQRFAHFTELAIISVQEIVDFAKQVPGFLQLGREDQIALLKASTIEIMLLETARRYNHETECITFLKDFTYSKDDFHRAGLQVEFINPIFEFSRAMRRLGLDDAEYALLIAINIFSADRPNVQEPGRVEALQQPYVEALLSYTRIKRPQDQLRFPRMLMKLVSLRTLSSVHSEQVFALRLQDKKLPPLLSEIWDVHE
The data set can be described thus: (§2) Agonist activity at human LXR-beta assessed as increase in recruitment of Trap 220/D22 coactivator peptide by TR-FRET assay. The format is functional.

Data set [8] concerns the target T6, Oxysterols receptor LXR-beta (Homo sapiens) (UniProt P55055).
T6 sequence (whole entry): T5 sequence (P55055 whole entry)
Described as §2. The class given is functional.

In data set [9] the target is T1, Oxysterols receptor LXR-alpha (Homo sapiens). The data set can be described thus: Agonist activity at LXR-alpha in human THP1 cells assessed as increase cholesterol efflux to HDL by FACs analysis. The following applies: THP-1. The class given is functional, cell-based.
The test system of data set [10] is HepG2. Description: Reduction in SCD-1 gene expression in human HepG2 cells at 100 uM by qPCR analysis relative to control. The arrangement: scale not given: the % may be the effect or the level left. The format is functional.
In data set [11] the test system is HepG2. Description: Upregulation of SREBP-1 gene expression in human HepG2 cells at 50 to 100 uM by immunoblot analysis. The format is ADME, cell-based. The following applies: hepg2, 100 µM.
In data set [12] the test system is HepG2. Description: Induction of lipid accumulation in human HepG2 cells assessed as increase in cellular triglyceride level at 50 to 100 uM by Oil Red O staining relative to control. The class given is cell-based. The settings on record: hepg2, 100 µM.
In data set [13] the target is T4, Liver X receptor (Homo sapiens). The data set can be described thus: Agonist activity at LXR in human THP1 cells assessed as increase in ApoE mRNA level at 100 uM after 48 hrs by qPCR analysis relative to control. The class given is functional, cell-based. The settings on record: THP-1.
In data set [14] the test system is HepG2. Description: Upregulation of SREBP-1 gene expression in human HepG2 cells at 50 to 100 uM by qPCR analysis relative to control relative to control. The format is ADME, cell-based. The settings on record: hepg2, 100 µM.
The target of data set [15] is T1, Oxysterols receptor LXR-alpha (Homo sapiens). Description: Agonist activity at LXR-alpha in human Caco2 cells assessed as reduction in cellular cholesterol level. The format is functional, cell-based. The settings on record: Caco-2.
Data set [16] relates to HepG2. Description: Upregulation of FAS gene expression in human HepG2 cells at 50 to 100 uM by qPCR analysis. The following applies: hepg2, 100 µM. The format is ADME, cell-based.
Data set [17] addresses T4, Liver X receptor (Homo sapiens). Description: Agonist activity at LXR in human THP1 cells assessed as induction of ABCG1 gene expression after 48 hrs by qPCR analysis. The class given is functional, cell-based. The settings on record: THP-1.
Data set [18] shares this target. Description: Agonist activity at LXR in human THP1 cells assessed as induction of ABCA1 gene expression after 48 hrs by qPCR analysis. The following applies: THP-1. The format is functional, cell-based.
Data set [19] shares this target. Description: Agonist activity at LXR in human THP1 cells assessed as induction of ABCA1 mRNA expression at 100 uM after 48 hrs by qPCR analysis relative to control. The format is functional, cell-based. The following applies: THP-1.
Data set [20] deals with T6, Oxysterols receptor LXR-beta (Homo sapiens). The data set can be described thus: Binding affinity to human LXR-beta LBD by SPR-Biacore assay.
Data set [21] has as its target T1, Oxysterols receptor LXR-alpha (Homo sapiens). Description: Binding affinity to human LXR-alpha LBD by SPR-Biacore assay.
Data set [22] concerns HepG2. The data set can be described thus: Induction of lipid accumulation in human HepG2 cells assessed as increase in cellular triglyceride level by Dil staining relative to control. The format is cell-based.
Data set [23] has as its target T4, Liver X receptor (Homo sapiens). The data set can be described thus: Agonist activity at LXR in human Caco2 cells assessed as increase in ABCG8 mRNA level at 100 uM after 48 hrs by qPCR analysis relative to control. The format is functional, cell-based. The settings on record: Caco-2.
The subject of data set [24] is HepG2. The data set can be described thus: Upregulation of CPT-1 gene expression in human HepG2 at 100 uM by qPCR analysis relative to control. The format is functional, cell-based.

Turning to `CCOC(=O)c1c(O)cc(O)cc1O`, the Activity entry with HepG2 [1] is “Non-toxic”; in data set [2], “Dose-dependent effect”; in data set [8], “Dose-dependent effect”; in data set [9], “Dose-dependent effect”; in the data set with HepG2 [10] it was 54.09%; with HepG2 [11], “Non-toxic”. For the same molecule, the Activity result is “Non-toxic” with HepG2 [12]; “Non-toxic” in the data set with HepG2 [14]; “Dose-dependent effect” in data set [15]; “Non-toxic” with HepG2 [16]; “Dose-dependent effect” in [17]; “Dose-dependent effect” in data set [18]. Further, in the data set on HepG2 [22], the Activity result is on record as “Non-toxic”. In addition, the EC50 turned out to be 1.5 µM in data set [3] and 3.04 µM in [7]. Further, the result in data set [4] was inactive. Further, the result (in [5]; in [20]; in data set [21]; with HepG2 [24]) was Active. Besides, the fold change (FC) was 2.1 in [6], 1.9 in [13], 7.4 in data set [19] and 1.5 in [23].
